{"source": "paper PMC4685510", "about": "“A Cell Biologist’s Field Guide to Aurora Kinase Inhibitors” (Frontiers in Oncology, 2015)", "test_in_all_cases": "biochemical", "type_in_all_cases": "biochemical", "key": {"[1]": {"biological_target": "T1, 363 human kinases (including Aurora A/B/C) (Homo sapiens, UniProt O14965)", "T1 sequence (O14965 1-403)": "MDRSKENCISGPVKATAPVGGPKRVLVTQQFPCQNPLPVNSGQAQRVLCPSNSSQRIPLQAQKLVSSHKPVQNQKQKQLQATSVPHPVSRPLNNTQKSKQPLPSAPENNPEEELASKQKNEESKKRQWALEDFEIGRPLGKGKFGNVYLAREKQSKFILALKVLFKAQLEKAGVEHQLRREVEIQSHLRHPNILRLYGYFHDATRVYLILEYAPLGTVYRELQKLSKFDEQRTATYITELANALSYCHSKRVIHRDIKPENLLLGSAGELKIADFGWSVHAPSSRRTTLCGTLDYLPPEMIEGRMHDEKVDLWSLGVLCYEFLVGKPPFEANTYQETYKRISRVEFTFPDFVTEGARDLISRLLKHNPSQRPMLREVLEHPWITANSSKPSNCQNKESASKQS", "settings": "[ATP] 2.5 µM; for remaining activity at 0.1 µM: 100 nM", "excerpt": "(§1) However, the Aurora A/B selectivity ratios derived from our in vitro and in vivo data can be compared to prioritize inhibitors."}, "[2]": {"biological_target": "363 human kinases (including Aurora A/B/C) (Homo sapiens, UniProt P41240)", "sequence (P41240 whole entry)": "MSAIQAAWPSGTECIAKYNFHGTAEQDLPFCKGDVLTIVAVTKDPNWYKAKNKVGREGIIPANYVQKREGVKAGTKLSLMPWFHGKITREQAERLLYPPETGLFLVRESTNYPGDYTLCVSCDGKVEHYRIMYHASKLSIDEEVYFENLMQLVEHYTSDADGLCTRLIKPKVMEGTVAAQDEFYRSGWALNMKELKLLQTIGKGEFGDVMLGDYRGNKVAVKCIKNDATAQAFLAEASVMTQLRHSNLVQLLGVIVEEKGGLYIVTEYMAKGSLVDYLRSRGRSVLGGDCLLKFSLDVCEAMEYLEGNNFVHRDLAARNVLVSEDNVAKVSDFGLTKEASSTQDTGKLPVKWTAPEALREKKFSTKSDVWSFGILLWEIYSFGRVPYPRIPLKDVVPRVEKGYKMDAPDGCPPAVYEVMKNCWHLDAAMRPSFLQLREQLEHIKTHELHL", "settings": "CSK, [ATP] 15 µM; for remaining activity at 0.1 µM: 100 nM; for remaining activity at 0.1 µM / remaining activity at 0.5 µM: read-out: % Enzyme Activity (relative to DMSO controls)", "excerpt": "as §1"}, "[3]": {"biological_target": "363 human kinases (including Aurora A/B/C) (Homo sapiens, UniProt Q9H2G2)", "sequence (Q9H2G2 whole entry)": "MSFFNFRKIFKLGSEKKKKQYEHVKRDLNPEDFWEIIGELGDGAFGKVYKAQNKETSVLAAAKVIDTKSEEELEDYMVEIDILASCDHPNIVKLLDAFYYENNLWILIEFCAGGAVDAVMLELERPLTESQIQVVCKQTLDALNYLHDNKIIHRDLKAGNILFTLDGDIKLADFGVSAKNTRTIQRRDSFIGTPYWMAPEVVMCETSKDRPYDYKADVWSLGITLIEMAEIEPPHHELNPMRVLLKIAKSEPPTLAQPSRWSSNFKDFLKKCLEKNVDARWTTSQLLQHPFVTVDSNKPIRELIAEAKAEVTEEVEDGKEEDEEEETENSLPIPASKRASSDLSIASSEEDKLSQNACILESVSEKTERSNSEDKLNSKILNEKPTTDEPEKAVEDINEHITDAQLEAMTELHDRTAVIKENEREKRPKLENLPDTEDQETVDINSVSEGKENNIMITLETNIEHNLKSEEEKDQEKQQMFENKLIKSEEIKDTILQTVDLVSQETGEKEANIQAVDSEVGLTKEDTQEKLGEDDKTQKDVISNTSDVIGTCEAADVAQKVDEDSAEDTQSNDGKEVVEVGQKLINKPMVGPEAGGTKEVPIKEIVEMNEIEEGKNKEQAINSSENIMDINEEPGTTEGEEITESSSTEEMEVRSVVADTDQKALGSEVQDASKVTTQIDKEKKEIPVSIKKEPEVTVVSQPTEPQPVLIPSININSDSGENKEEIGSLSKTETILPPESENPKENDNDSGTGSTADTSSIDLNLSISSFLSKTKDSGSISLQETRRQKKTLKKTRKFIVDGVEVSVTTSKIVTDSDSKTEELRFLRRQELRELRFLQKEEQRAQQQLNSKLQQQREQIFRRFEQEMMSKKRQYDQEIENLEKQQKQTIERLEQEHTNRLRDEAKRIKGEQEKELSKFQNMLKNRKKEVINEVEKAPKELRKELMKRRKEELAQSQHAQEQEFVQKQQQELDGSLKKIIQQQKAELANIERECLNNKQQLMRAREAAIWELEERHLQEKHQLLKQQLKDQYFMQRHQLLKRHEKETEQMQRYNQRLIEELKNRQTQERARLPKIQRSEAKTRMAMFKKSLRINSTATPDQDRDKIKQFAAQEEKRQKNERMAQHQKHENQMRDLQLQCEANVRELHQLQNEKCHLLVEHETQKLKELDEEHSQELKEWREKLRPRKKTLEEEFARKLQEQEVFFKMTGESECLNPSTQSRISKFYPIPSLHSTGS", "settings": "SLK/STK2; for remaining activity at 0.1 µM: 100 nM; for remaining activity at 0.1 µM / remaining activity at 0.5 µM: read-out: % Enzyme Activity (relative to DMSO controls)", "excerpt": "as §1"}, "[4]": {"biological_target": "363 human kinases (including Aurora A/B/C) (Homo sapiens, UniProt Q9H0K1)", "sequence (Q9H0K1 whole entry)": "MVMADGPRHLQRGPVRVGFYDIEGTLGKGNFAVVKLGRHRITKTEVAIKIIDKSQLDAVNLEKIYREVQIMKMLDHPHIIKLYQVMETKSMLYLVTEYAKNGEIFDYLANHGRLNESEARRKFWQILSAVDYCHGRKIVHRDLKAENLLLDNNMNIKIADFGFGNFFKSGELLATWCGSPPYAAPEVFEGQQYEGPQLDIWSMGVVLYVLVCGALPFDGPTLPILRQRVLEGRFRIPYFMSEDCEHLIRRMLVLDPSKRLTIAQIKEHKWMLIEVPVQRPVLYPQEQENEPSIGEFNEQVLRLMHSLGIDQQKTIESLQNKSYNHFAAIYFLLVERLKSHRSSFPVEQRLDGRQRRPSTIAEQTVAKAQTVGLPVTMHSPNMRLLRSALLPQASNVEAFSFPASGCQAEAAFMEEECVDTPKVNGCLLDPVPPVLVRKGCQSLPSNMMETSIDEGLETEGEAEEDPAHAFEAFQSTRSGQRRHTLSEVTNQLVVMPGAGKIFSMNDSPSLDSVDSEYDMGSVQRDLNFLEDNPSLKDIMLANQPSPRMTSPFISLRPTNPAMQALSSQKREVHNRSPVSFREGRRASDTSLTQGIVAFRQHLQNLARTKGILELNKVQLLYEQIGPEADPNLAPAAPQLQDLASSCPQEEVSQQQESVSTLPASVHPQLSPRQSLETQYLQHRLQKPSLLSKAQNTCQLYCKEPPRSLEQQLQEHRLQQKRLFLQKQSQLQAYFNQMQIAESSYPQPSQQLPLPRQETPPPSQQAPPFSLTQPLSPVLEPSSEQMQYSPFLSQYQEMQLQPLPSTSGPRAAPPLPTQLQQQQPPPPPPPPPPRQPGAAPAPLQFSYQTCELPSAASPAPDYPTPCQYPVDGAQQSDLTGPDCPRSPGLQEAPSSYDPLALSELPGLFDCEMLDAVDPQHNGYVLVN", "settings": "SIK2; for remaining activity at 0.1 µM: 100 nM; for remaining activity at 0.1 µM / remaining activity at 0.5 µM: read-out: % Enzyme Activity (relative to DMSO controls)", "excerpt": "as §1"}, "[5]": {"biological_target": "T2, 363 human kinases (including Aurora A/B/C) (Homo sapiens, UniProt Q13873)", "T2 sequence (Q13873 27-1038)": "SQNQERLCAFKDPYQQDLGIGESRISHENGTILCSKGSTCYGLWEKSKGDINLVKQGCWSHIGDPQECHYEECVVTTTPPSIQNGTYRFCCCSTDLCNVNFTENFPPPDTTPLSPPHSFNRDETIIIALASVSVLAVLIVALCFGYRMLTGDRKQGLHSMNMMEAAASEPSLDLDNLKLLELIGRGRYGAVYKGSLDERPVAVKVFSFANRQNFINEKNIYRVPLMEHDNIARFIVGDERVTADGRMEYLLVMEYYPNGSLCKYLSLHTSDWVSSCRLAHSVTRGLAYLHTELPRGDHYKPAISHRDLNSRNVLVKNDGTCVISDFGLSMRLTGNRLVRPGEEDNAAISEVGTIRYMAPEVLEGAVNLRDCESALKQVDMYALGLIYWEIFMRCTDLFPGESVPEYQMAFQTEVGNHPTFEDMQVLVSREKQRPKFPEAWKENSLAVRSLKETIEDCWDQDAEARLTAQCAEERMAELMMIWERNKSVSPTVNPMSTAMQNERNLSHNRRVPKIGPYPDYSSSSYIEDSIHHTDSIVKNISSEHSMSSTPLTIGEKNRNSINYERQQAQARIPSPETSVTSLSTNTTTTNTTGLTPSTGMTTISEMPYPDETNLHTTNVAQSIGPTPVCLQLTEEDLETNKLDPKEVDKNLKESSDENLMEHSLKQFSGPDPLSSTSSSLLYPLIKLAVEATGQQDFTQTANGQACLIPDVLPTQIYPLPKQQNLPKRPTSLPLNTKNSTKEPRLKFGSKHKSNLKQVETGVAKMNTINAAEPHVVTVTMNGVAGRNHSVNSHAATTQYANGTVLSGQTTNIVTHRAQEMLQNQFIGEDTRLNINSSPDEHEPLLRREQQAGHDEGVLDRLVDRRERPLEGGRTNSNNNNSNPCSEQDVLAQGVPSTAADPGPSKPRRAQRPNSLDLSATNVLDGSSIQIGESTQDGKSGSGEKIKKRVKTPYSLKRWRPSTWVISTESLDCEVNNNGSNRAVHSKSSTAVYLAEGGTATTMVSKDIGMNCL", "settings": "BMPR2, [ATP] 15 µM; for remaining activity at 0.1 µM: 100 nM; for remaining activity at 0.1 µM / remaining activity at 0.5 µM: read-out: % Enzyme Activity (relative to DMSO controls)", "excerpt": "as §1"}, "[6]": {"biological_target": "363 human kinases (including Aurora A/B/C) (Homo sapiens, UniProt Q15303)", "sequence (Q15303 26-1308)": "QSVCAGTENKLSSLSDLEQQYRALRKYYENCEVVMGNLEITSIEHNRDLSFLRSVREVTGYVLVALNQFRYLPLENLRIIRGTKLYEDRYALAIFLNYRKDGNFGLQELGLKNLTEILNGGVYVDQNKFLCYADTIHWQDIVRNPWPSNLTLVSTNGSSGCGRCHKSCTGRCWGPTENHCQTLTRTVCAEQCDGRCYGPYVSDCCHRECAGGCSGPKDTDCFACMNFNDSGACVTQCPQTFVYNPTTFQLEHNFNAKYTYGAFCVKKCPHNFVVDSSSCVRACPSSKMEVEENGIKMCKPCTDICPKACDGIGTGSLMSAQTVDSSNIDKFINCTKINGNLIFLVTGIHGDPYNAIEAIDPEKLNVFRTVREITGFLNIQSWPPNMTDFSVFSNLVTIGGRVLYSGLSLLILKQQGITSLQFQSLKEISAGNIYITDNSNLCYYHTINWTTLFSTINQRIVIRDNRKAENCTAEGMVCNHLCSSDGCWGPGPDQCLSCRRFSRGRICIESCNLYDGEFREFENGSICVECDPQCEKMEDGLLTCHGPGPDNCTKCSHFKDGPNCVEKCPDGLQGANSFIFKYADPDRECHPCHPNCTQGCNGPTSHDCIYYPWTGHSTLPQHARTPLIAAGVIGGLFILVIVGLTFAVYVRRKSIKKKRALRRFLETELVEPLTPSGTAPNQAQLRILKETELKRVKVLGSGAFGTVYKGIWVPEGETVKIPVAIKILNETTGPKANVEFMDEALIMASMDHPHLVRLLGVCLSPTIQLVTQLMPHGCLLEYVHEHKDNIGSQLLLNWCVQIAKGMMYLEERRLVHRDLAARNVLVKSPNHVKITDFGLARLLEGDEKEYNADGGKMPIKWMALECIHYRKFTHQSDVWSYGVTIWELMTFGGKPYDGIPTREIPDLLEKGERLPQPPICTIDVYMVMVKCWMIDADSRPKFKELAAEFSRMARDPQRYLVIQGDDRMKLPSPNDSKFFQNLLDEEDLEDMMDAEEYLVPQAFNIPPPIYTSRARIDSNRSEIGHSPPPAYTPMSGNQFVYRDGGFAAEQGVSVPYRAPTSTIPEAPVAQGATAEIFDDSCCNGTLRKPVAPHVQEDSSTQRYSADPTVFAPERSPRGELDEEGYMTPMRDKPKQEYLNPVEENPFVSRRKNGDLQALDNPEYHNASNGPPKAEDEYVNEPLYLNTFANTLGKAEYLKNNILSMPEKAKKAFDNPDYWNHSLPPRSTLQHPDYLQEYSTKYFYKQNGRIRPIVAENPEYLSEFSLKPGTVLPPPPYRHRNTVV", "settings": "ERBB4/HER4, [ATP] 2.5 µM; for remaining activity at 0.1 µM: 100 nM; for remaining activity at 0.1 µM / remaining activity at 0.5 µM: read-out: % Enzyme Activity (relative to DMSO controls)", "excerpt": "as §1"}, "[7]": {"biological_target": "T3, 363 human kinases (including Aurora A/B/C) (Homo sapiens, UniProt O15146)", "T3 sequence (O15146 24-869)": "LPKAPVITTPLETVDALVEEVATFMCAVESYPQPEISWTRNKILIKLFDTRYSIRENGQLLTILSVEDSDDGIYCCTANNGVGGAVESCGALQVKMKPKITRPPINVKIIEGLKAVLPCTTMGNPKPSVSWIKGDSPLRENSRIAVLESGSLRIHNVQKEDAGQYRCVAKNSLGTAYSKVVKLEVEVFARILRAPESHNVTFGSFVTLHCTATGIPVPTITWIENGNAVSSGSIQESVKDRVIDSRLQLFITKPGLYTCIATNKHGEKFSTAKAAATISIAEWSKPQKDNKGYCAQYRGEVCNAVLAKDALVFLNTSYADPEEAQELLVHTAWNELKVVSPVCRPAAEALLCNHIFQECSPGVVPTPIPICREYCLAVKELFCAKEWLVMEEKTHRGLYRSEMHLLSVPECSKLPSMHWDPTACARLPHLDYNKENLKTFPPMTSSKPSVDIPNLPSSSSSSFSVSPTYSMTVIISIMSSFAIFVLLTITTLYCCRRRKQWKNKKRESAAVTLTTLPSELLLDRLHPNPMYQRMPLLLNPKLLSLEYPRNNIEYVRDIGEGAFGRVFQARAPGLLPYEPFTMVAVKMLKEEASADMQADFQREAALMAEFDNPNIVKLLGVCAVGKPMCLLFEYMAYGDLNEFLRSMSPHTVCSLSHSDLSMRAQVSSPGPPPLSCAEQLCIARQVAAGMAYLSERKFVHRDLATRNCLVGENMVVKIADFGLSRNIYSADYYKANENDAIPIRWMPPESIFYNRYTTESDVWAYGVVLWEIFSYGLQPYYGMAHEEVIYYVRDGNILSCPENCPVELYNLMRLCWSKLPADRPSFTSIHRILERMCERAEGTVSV", "settings": "MUSK; for remaining activity at 0.1 µM: 100 nM; for remaining activity at 0.1 µM / remaining activity at 0.5 µM: read-out: % Enzyme Activity (relative to DMSO controls)", "excerpt": "as §1"}, "[8]": {"biological_target": "363 human kinases (including Aurora A/B/C) (Homo sapiens, UniProt O15075)", "sequence (O15075 whole entry)": "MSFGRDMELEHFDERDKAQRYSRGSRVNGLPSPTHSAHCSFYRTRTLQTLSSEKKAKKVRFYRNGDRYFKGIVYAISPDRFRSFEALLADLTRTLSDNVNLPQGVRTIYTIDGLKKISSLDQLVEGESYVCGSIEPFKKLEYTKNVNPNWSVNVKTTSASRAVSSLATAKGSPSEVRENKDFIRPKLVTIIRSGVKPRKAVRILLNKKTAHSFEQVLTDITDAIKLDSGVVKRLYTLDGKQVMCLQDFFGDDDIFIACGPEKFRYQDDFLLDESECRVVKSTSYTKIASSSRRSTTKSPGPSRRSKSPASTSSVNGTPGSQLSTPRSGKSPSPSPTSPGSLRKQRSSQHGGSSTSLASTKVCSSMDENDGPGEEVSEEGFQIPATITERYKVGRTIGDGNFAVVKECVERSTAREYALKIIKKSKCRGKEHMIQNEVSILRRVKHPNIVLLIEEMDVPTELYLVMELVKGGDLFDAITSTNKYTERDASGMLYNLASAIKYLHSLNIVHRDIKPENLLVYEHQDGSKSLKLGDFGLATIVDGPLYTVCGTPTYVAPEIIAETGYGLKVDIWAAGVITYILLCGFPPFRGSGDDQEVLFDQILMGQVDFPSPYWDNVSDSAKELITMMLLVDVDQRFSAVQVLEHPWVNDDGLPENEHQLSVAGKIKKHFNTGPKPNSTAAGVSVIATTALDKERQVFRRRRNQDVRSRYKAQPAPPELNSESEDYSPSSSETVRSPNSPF", "settings": "DCAMKL1, [ATP] 50 µM; for remaining activity at 0.1 µM: 100 nM; for remaining activity at 0.1 µM / remaining activity at 0.5 µM: read-out: % Enzyme Activity (relative to DMSO controls)", "excerpt": "as §1"}}, "note": "Like-named read-outs stand apart in the source and are kept apart here."}
{"smiles": "O=C(O)[C@]1(Cc2cccc(Nc3nccs3)n2)CC[C@@H](Oc2cccc(Cl)c2F)CC1", "note": "[MK-5108]", "values": [{"measurement": "remaining activity at 0.1 µM", "setting": "[1]; Aurora A, read-out: % Enzyme Activity (relative to DMSO controls)", "value": 2.38, "unit": "%"}, {"measurement": "remaining activity at 0.1 µM", "setting": "[2]", "value": 93.9, "unit": "%"}, {"measurement": "remaining activity at 0.5 µM", "setting": "[2]; 500 nM", "value": 67.9, "unit": "%"}, {"measurement": "remaining activity at 0.1 µM", "setting": "[3]", "value": 53.5, "unit": "%"}, {"measurement": "remaining activity at 0.5 µM", "setting": "[3]; 500 nM", "value": 16.7, "unit": "%"}, {"measurement": "remaining activity at 0.1 µM", "setting": "[4]", "value": 96.5, "unit": "%"}, {"measurement": "remaining activity at 0.5 µM", "setting": "[4]; 500 nM", "value": 93.3, "unit": "%"}, {"measurement": "remaining activity at 0.1 µM", "setting": "[5]", "value": 46.4, "unit": "%"}, {"measurement": "remaining activity at 0.5 µM", "setting": "[5]; 500 nM", "value": 37, "unit": "%"}, {"measurement": "remaining activity at 0.1 µM", "setting": "[6]", "value": 97.1, "unit": "%"}, {"measurement": "remaining activity at 0.5 µM", "setting": "[6]; 500 nM", "value": 77.7, "unit": "%"}, {"measurement": "remaining activity at 0.1 µM", "setting": "[7]", "value": 104, "unit": "%"}, {"measurement": "remaining activity at 0.5 µM", "setting": "[7]; 500 nM", "value": 71.9, "unit": "%"}, {"measurement": "remaining activity at 0.1 µM", "setting": "[8]", "value": 108, "unit": "%"}, {"measurement": "remaining activity at 0.5 µM", "setting": "[8]; 500 nM", "value": 131, "unit": "%"}]}
{"smiles": "O=C(c1cccc(Cl)c1F)N1CCN(Cc2cccc(Nc3nccs3)n2)CC1", "note": "[MK-8745]", "values": [{"measurement": "% Enzyme Activity (relative to DMSO controls)", "setting": "[1]; Aurora A, 500 nM", "value": 0.37, "unit": "%"}, {"measurement": "remaining activity at 0.5 µM", "setting": "[1]; Aurora A, 500 nM, read-out: % Enzyme Activity (relative to DMSO controls)", "value": 0.55, "unit": "%"}, {"measurement": "% Enzyme Activity (relative to DMSO controls)", "setting": "[2]; 500 nM", "value": 94.61, "unit": "%"}, {"measurement": "remaining activity at 0.5 µM", "setting": "[2]; 500 nM", "value": 95.8, "unit": "%"}, {"measurement": "% Enzyme Activity (relative to DMSO controls)", "setting": "[3]; 500 nM", "value": 77.19, "unit": "%"}, {"measurement": "remaining activity at 0.5 µM", "setting": "[3]; 500 nM", "value": 77.7, "unit": "%"}, {"measurement": "% Enzyme Activity (relative to DMSO controls)", "setting": "[4]; 500 nM", "value": 96.62, "unit": "%"}, {"measurement": "remaining activity at 0.5 µM", "setting": "[4]; 500 nM", "value": 98.7, "unit": "%"}, {"measurement": "% Enzyme Activity (relative to DMSO controls)", "setting": "[5]; 500 nM", "value": 98.44, "unit": "%"}, {"measurement": "remaining activity at 0.5 µM", "setting": "[5]; 500 nM", "value": 106, "unit": "%"}, {"measurement": "% Enzyme Activity (relative to DMSO controls)", "setting": "[6]; 500 nM", "value": 93.35, "unit": "%"}, {"measurement": "remaining activity at 0.5 µM", "setting": "[6]; 500 nM", "value": 94.9, "unit": "%"}, {"measurement": "% Enzyme Activity (relative to DMSO controls)", "setting": "[7]; 500 nM", "value": 94.70, "unit": "%"}, {"measurement": "remaining activity at 0.5 µM", "setting": "[7]; 500 nM", "value": 95.3, "unit": "%"}, {"measurement": "% Enzyme Activity (relative to DMSO controls)", "setting": "[8]; 500 nM", "value": 138.94, "unit": "%"}, {"measurement": "remaining activity at 0.5 µM", "setting": "[8]; 500 nM", "value": 142, "unit": "%"}]}
{"smiles": "CCn1cc(-c2ccnc3[nH]c(-c4cccc(CN(C)C)c4)cc23)c(-c2ccc(NC(=O)N(C)C)cc2)n1", "note": "[GSK1070916]", "values": [{"measurement": "remaining activity at 0.1 µM", "setting": "[1]; read-out: % Enzyme Activity (relative to DMSO controls), Aurora A", "value": 25.9, "unit": "%"}, {"measurement": "remaining activity at 0.1 µM", "setting": "[2]", "value": 99.8, "unit": "%"}, {"measurement": "remaining activity at 0.1 µM", "setting": "[3]", "value": 95.2, "unit": "%"}, {"measurement": "remaining activity at 0.1 µM", "setting": "[4]", "value": 40, "unit": "%"}, {"measurement": "remaining activity at 0.1 µM", "setting": "[5]", "value": 147, "unit": "%"}, {"measurement": "remaining activity at 0.1 µM", "setting": "[6]", "value": 87.3, "unit": "%"}, {"measurement": "remaining activity at 0.1 µM", "setting": "[7]", "value": 96, "unit": "%"}, {"measurement": "remaining activity at 0.1 µM", "setting": "[8]", "value": 114, "unit": "%"}]}
